Results from PubChem BioAssay (NCI).
Where “and” joins values, the source holds several entries; their conditions need not be identical. Equal values may be shown once.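 Assay format: 96-well plates, 48-hour exposure. GI50: concentration for 50% inhibition of growth. TGI: concentration producing complete growth inhibition.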

Columns and labels:
Assay in all cases: NCI tumour cell line growth inhibition, 48 h
DLD-1 colon = tested on: DLD-1 colon
DMS 114 small cell lung = tested on: DMS 114 small cell lung
LXFL 529 NSCLC = tested on: LXFL 529 NSCLC
M19-MEL melanoma = tested on: M19-MEL melanoma
MDA-N = tested on: MDA-N
XF 498 CNS = tested on: XF 498 CNS
RXF-631 renal = tested on: RXF-631 renal

Structure (SMILES) | TGI (DLD-1 colon) [µM] | TGI (DMS 114 small cell lung) [µM] | TGI (LXFL 529 NSCLC) [µM] | TGI (M19-MEL melanoma) [µM] | TGI (MDA-N) | TGI (XF 498 CNS) [µM] | TGI (RXF-631 renal) [µM] | GI50 (MDA-N) [µM]
CC1(C)OCN(c2ccc(Cl)cc2)Cn2c1nc1ccccc12 | > 100 | 53.2 | > 100 | > 100 | > 100 µM | > 100 | – | –
COc1cc2c(cc1C)n(O)c(C)c(C(=O)C/C(=N/NC(=O)C[N+](C)(C)C)C(=O)Nc1cccc(Cl)c1C)[n+]2=O | > 100 | > 100 | > 100 | – | – | > 100 | > 100 | –
Cc1ccc(N2C(=O)/C(=C3\Sc4c(nc(C)[nH]c4=O)N3c3ccccc3)SC2=S)cc1 | > 100 | > 100 | > 100 | > 100 | – | 51.8 | – | –
O=[N+]([O-])c1ccccc1C1N2CCCCC2[C@@H]2c3[nH]c4ccccc4c3CCN12 (some centres undefined) | 36.3 | 14.7 | 22.8 | 18.5 | – | 30.6 | 32.8 | –
COc1ccc(O)c2c1C(=O)CCCC2=O | > 100 | > 100 | > 100 | > 100 | – | > 100 | > 100 | –
O=c1c([Se]c2coc3ccccc3c2=O)coc2ccccc12 | 34 | 31.5 | 28.8 | 28.6 | – | 30.5 | – | –
CC[C@@H]1OC2(C)CC(S(=O)(=O)c3ccccc3)CC1O2 (some centres undefined) | > 100 | > 100 | > 100 | > 100 | – | – | > 100 | –
C[Si](C)(C)/C=C/CN1C(=O)CCC1O (centres undefined) | > 100 | > 100 | > 100 | > 100 | – | > 100 | – | –
Cc1nc(C(N)=S)sc1C(=O)/C=C/c1cccc(O)c1 | > 100 | > 100 | – | > 100 | – | – | > 100 | –
COC(=O)C1=C(C(=O)OC)C2(C(=O)OC)OC1(OC)C(C1(C(=O)OC)C(C(=O)OC)=C1C(=O)OC)=C2C(=O)OC (centres undefined) | > 100 | > 100 | > 100 | > 100 | – | > 100 | – | –
CC1OC(O)C(O)C(O)C1O (centres undefined) | – | – | – | – | > 100 µM | – | – | –
CCN(CC)CCCNC(=O)Cc1ccccc1Nc1c(Cl)cccc1Cl | 28.3 | 27.6 | 21.3 | 17.4 | – | 20.8 | – | –
COC1=C(OC)CCC(/C(C#N)=C/c2ccc(OC)c(OC)c2)=C1 | > 100 | > 100 | > 100 | > 100 | – | – | > 100 | –
CCc1cccc(C)c1NC(=O)NS(=O)(=O)c1ccc(C)cc1 | > 100 | > 100 | > 100 | > 100 | – | > 100 | > 100 | –
O=[N+]([O-])c1ccc(Cl)c(C2SCc3nc4ccccc4n32)c1 (centres undefined) | > 100 | > 100 | > 100 | > 100 | – | – | – | –
CC(C)C(N)(C(=O)O)c1ccccc1 (centres undefined) | – | – | – | – | > 100 µM | – | – | –
COc1cccc(C2C(C(=O)Nc3cc(=O)n(C)c(=O)n3C)=C(C)NC(C)=C2C(=O)Nc2cc(=O)n(C)c(=O)n2C)c1O | > 100 | > 100 | > 100 | > 100 | – | > 100 | > 100 | –
O=C1C(c2ccccc2)=C(c2ccccc2)C(c2ccc(CCCCCCc3ccc(C4=C(c5ccccc5)C(=O)C(c5ccccc5)=C4c4ccccc4)cc3)cc2)=C1c1ccccc1 | > 100 | > 100 | > 100 | > 100 | – | – | > 100 | –
CCOC(=O)C12CC1(C(=O)OCC)C1CCC2C1 (centres undefined) | > 100 | > 100 | > 100 | > 100 | – | – | > 100 | –
Oc1ccc2ccccc2c1N=Nc1ccccc1 | – | – | – | – | > 100 µM | – | – | –
CCOC(=O)C(C)(C)Oc1ccc2c(-c3ccc(Cl)cc3)cc(=O)oc2c1 | > 100 | > 100 | > 100 | > 100 | – | – | > 100 | –
CN(O)C(=O)Cc1ccccc1 | > 100 | > 100 | > 100 | > 100 | – | > 100 | – | –

Structure (SMILES) | TGI (DLD-1 colon) [µM] | TGI (DMS 114 small cell lung) [µM] | TGI (LXFL 529 NSCLC) [µM] | TGI (M19-MEL melanoma) [µM] | TGI (MDA-N) | TGI (XF 498 CNS) [µM] | TGI (RXF-631 renal) [µM] | GI50 (MDA-N) [µM]
Cc1cc(C)c(C(=O)OC(c2ccccc2)C(c2ccccc2)N2CCOCC2)c(C)c1 (centres undefined) | > 100 | > 100 | > 100 | > 100 | – | > 100 | > 100 | –
O=[As](O)(O)c1ccc(Cc2ccc([As](=O)(O)O)cc2)cc1 | – | – | – | – | 1.65 µM | – | – | –
CC1=C2C(c3ccccc3)(c3ccccc3)C3C=CC2(C=N3)N(C(=O)NC2CCCCC2)C1=O (centres undefined) | – | 32.5 | 30.1 | – | – | – | 26.2 | –
COc1ccccc1/C=C\c1cc(OC)c(OC)c(OC)c1 | > 100 | > 100 | > 100 | > 100 | – | 48 | > 100 | –
Cn1c(O)c(C(=O)Nc2ccc([N+](=O)[O-])cc2)c(=O)n(C)c1=S | > 35.5 | 4.81 | > 50.1 | > 45.3 | – | – | – | –
CCNCC(O)c1ccc(N)c([N+](=O)[O-])c1 (centres undefined) | – | – | – | – | > 100 µM | – | – | –
O=c1nc2cc(-c3ccccc3)[nH]c2nn1-c1c(Cl)cc(Cl)cc1Cl | > 100 | > 100 | > 100 | 63.2 | – | 64.1 | > 100 | –
COC(=O)C1(Cc2cccc(Cl)c2)CCCCCCN1C(=O)c1ccccc1 (centres undefined) | – | – | – | – | 30.4 µM | – | – | –
COc1ccc(C2S/C(=C\c3ccc(OC)cc3OC)C(=O)N2NC(=O)Cc2ccccc2)cc1 (centres undefined) | > 100 | > 100 | > 100 | > 100 | – | – | – | –
CC(=O)OC1CCC2(C)C(=CC(C3C=C4CC(OC(C)=O)CCC4(C)C4=C3C3CC5OC6(CCC(C)CO6)C(C)C5C3(C)CC4)C3=C2CCC2(C)C3CC3OC4(CCC(C)CO4)C(C)C32)C1 (centres undefined) | – | – | – | – | 30.9 µM | – | – | –
COc1cc(C2C(C(=O)Nc3ccccc3)=C(C)NC(C)=C2C(=O)Nc2ccccc2)ccc1O | > 100 | > 100 | > 100 | > 100 | – | > 100 | – | –
O=Cc1coc2ccccc2c1=O | – | – | – | – | 52.3 µM | – | – | –
O=C1C2=C(c3ccccc31)C(c1ccccc1Cl)N1C(=O)CSC1=N2 (centres undefined) | > 100 | > 100 | > 100 | > 100 | – | > 100 | > 100 | –
CCC1(CN(C)C)CC/C(=C\c2ccc3c(c2)OCO3)C1=O (centres undefined) | > 100 | – | > 100 | > 100 | – | – | > 100 | –
COc1ccc(C(=O)C=C2NCCN2)cc1 | > 100 | > 100 | > 100 | > 100 | – | – | – | –
O=[N+]([O-])c1ccc2c(N=Nc3c(O)ccc4ccccc34)c(O)cc(S(=O)(=O)O)c2c1 | – | – | – | – | 50 µM and > 100 µM | – | – | 45.3
Cc1ccc(Nc2ccc(Nc3ccc(C)cc3)c3c2C(=O)c2c(O)ccc(O)c2C3=O)cc1 | > 100 | > 100 | > 100 | > 100 | – | > 100 | – | –
CC(=O)Oc1cccc2c1C(=O)c1c(OC(C)=O)cc(C)cc1C2=O | – | – | – | – | > 100 µM | – | – | –
CCC1(OC(C)=O)C(=O)OCc2c1cc1n(c2=O)Cc2cc3ccccc3nc2-1 (centres undefined) | > 100 | 11.9 | > 100 | > 100 | – | > 100 | > 100 | –
O=C1c2cc(CCl)sc2C(=O)c2ccsc21 | 2.16 | 0.298 | 0.609 | – | 0.0343 µM | 3.1 | – | –
CN(C)c1ccc(/C=C/c2ccnc3ccccc23)cc1 | – | – | – | – | 40.1 µM | – | – | –
